What was measured:
Experiment in all cases: Test C pre/postemergence
Assay type in all cases: in vivo
Conditions in all cases: Postemergence
[1] = system: Surinam grass (Brachiaria decumbens)
How it was run: (§1)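 Injury scored visually 12–14 days after application on 0–100 scale (100 = complete control), relative to controls. Compounds, formulated with surfactant in non-phytotoxic solvent, applied to soil at planting (pre) or to 1- to 4-leaf plants 2–18 cm tall (post) in greenhouse.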

[2] = system: bermudagrass (Cynodon dactylon)
How it was run: as §1

[3] = system: crabgrass (Digitaria sanguinalis)
How it was run: as §1

[4] = system: giant foxtail (Setaria faberii)
How it was run: as §1

[5] = system: goosegrass (Eleusine indica)
How it was run: as §1

[6] = system: johnsongrass (Sorghum halepense)
How it was run: as §1

[7] = system: kochia (Kochia scoparia)
How it was run: as §1

[8] = system: morningglory (Ipomoea coccinea)
How it was run: as §1

[9] = system: pigweed (Amaranthus retroflexus)
How it was run: as §1

[10] = system: soybean (Glycine max)
How it was run: as §1

[11] = system: woolly cupgrass (Eriochloa villosa)
How it was run: as §1

[12] = 125 g ai/ha, scale 0 to 100 (0 no effect, 100 complete control)

CCOC(=O)c1nc(C2CC2)nc(NN)c1Br [Compound 42]
pest or weed control at 125 g/ha ([1]; Urochloa decumbens, post-emergence, 125 g ai/ha, scale 0 to 100 (0 no effect, 100 complete control), read-out: Surinam Grass plant response rating): 0%
pest or weed control at 31 g/ha ([1]; Urochloa decumbens, post-emergence, 31 g ai/ha, read-out: Plant response rating (scale of 0 to 100), Surinam Grass): 0%
pest or weed control at 62 g/ha ([1]; Urochloa decumbens, post-emergence, 62 g ai/ha, scale 0 to 100 (0 no effect, 100 complete control), read-out: Surinam Grass plant response rating): 0%
pest or weed control at 250 g/ha ([1]; Urochloa decumbens, post-emergence, 250 g ai/ha, scale 0 to 100, read-out: Plant response rating, Surinam Grass): 0%
pest or weed control at 31 g/ha ([2]; Cynodon dactylon, post-emergence, 31 g ai/ha, read-out: Plant response rating (scale of 0 to 100), Bermudagrass): 0%
pest or weed control at 62 g/ha ([2]; Cynodon dactylon, post-emergence, 62 g ai/ha, scale 0 to 100 (0 no effect, 100 complete control), read-out: Bermudagrass plant response rating): 0%
pest or weed control at 125 g/ha ([2]; Cynodon dactylon, post-emergence, 125 g ai/ha, scale 0 to 100 (0 no effect, 100 complete control), read-out: Bermudagrass plant response rating): 0%
pest or weed control at 250 g/ha ([2]; Cynodon dactylon, post-emergence, 250 g ai/ha, scale 0 to 100, read-out: Plant response rating, Bermudagrass): 5%
pest or weed control at 31 g/ha ([3]; Digitaria sanguinalis, post-emergence, 31 g ai/ha, read-out: Plant response rating (scale of 0 to 100), Crabgrass): 0%
pest or weed control at 62 g/ha ([3]; Digitaria sanguinalis, post-emergence, 62 g ai/ha, scale 0 to 100 (0 no effect, 100 complete control), read-out: Crabgrass plant response rating): 0%
pest or weed control at 125 g/ha ([3]; Digitaria sanguinalis, post-emergence, 125 g ai/ha, scale 0 to 100 (0 no effect, 100 complete control), read-out: Crabgrass plant response rating): 0%
pest or weed control at 250 g/ha ([3]; Digitaria sanguinalis, post-emergence, 250 g ai/ha, scale 0 to 100, read-out: Plant response rating, Crabgrass): 0%
pest or weed control at 125 g/ha ([4]; Setaria faberi, post-emergence, 125 g ai/ha, scale 0 to 100 (0 no effect, 100 complete control), read-out: Foxtail, Giant plant response rating): 0%
pest or weed control at 31 g/ha ([4]; Setaria faberi, post-emergence, 31 g ai/ha, read-out: Plant response rating (scale of 0 to 100), Foxtail, Giant): 0%
pest or weed control at 62 g/ha ([4]; Setaria faberi, post-emergence, 62 g ai/ha, scale 0 to 100 (0 no effect, 100 complete control), read-out: Foxtail, Giant plant response rating): 0%
pest or weed control at 250 g/ha ([4]; Setaria faberi, post-emergence, 250 g ai/ha, scale 0 to 100, read-out: Plant response rating, Foxtail, Giant): 0%
pest or weed control at 31 g/ha ([5]; Eleusine indica, post-emergence, 31 g ai/ha, read-out: Plant response rating (scale of 0 to 100), Goosegrass): 0%
pest or weed control at 62 g/ha ([5]; Eleusine indica, post-emergence, 62 g ai/ha, scale 0 to 100 (0 no effect, 100 complete control), read-out: Goosegrass plant response rating): 0%
pest or weed control at 125 g/ha ([5]; Eleusine indica, post-emergence, 125 g ai/ha, scale 0 to 100 (0 no effect, 100 complete control), read-out: Goosegrass plant response rating): 0%
pest or weed control at 250 g/ha ([5]; Eleusine indica, post-emergence, 250 g ai/ha, scale 0 to 100, read-out: Plant response rating, Goosegrass): 0%
pest or weed control at 31 g/ha ([6]; Sorghum halepense, post-emergence, 31 g ai/ha, read-out: Plant response rating (scale of 0 to 100), Johnsongrass): 0%
pest or weed control at 62 g/ha ([6]; Sorghum halepense, post-emergence, 62 g ai/ha, scale 0 to 100 (0 no effect, 100 complete control), read-out: Johnsongrass plant response rating): 0%
pest or weed control at 125 g/ha ([6]; Sorghum halepense, post-emergence, 125 g ai/ha, scale 0 to 100 (0 no effect, 100 complete control), read-out: Johnsongrass plant response rating): 0%
pest or weed control at 250 g/ha ([6]; Sorghum halepense, post-emergence, 250 g ai/ha, scale 0 to 100, read-out: Plant response rating, Johnsongrass): 10%
pest or weed control at 31 g/ha ([7]; Bassia scoparia, post-emergence, 31 g ai/ha, read-out: Plant response rating (scale of 0 to 100), Kochia): 5%
pest or weed control at 62 g/ha ([7]; Bassia scoparia, post-emergence, 62 g ai/ha, scale 0 to 100 (0 no effect, 100 complete control), read-out: Kochia plant response rating): 30%
pest or weed control at 125 g/ha ([7]; Bassia scoparia, post-emergence, 125 g ai/ha, scale 0 to 100 (0 no effect, 100 complete control), read-out: Kochia plant response rating): 50%
pest or weed control at 250 g/ha ([7]; Bassia scoparia, post-emergence, 250 g ai/ha, scale 0 to 100, read-out: Plant response rating, Kochia): 85%
pest or weed control at 31 g/ha ([8]; Ipomoea, post-emergence, 31 g ai/ha, read-out: Plant response rating (scale of 0 to 100), Morningglory): 0%
pest or weed control at 62 g/ha ([8]; Ipomoea, post-emergence, 62 g ai/ha, scale 0 to 100 (0 no effect, 100 complete control), read-out: Morningglory plant response rating): 50%
pest or weed control at 125 g/ha ([8]; Ipomoea, post-emergence, 125 g ai/ha, scale 0 to 100 (0 no effect, 100 complete control), read-out: Morningglory plant response rating): 80%
pest or weed control at 250 g/ha ([8]; Ipomoea, post-emergence, 250 g ai/ha, scale 0 to 100, read-out: Plant response rating, Morningglory): 85%
pest or weed control at 31 g/ha ([9]; Amaranthus retroflexus, post-emergence, 31 g ai/ha, read-out: Plant response rating (scale of 0 to 100), Pigweed): 10%
pest or weed control at 62 g/ha ([9]; Amaranthus retroflexus, post-emergence, 62 g ai/ha, scale 0 to 100 (0 no effect, 100 complete control), read-out: Pigweed plant response rating): 10%
pest or weed control at 125 g/ha ([9]; Amaranthus retroflexus, post-emergence, 125 g ai/ha, scale 0 to 100 (0 no effect, 100 complete control), read-out: Pigweed plant response rating): 20%
pest or weed control at 250 g/ha ([9]; Amaranthus retroflexus, post-emergence, 250 g ai/ha, scale 0 to 100, read-out: Plant response rating, Pigweed): 30%
plant injury at 31 g/ha ([10]; Glycine max, post-emergence, 31 g ai/ha, read-out: Plant response rating (scale of 0 to 100), Soybean): 10%
plant injury at 62 g/ha ([10]; Glycine max, post-emergence, 62 g ai/ha, scale 0 to 100 (0 no effect, 100 complete control), read-out: Soybean plant response rating): 30%
plant injury at 125 g/ha ([10]; Glycine max, post-emergence, 125 g ai/ha, scale 0 to 100 (0 no effect, 100 complete control), read-out: Soybean plant response rating): 40%
plant injury at 250 g/ha ([10]; Glycine max, post-emergence, 250 g ai/ha, scale 0 to 100, read-out: Plant response rating, Soybean): 70%
pest or weed control at 31 g/ha ([11]; Eriochloa villosa, post-emergence, 31 g ai/ha, read-out: Plant response rating (scale of 0 to 100), Cupgrass, Woolly): 0%
pest or weed control at 62 g/ha ([11]; Eriochloa villosa, post-emergence, 62 g ai/ha, scale 0 to 100 (0 no effect, 100 complete control), read-out: Cupgrass, Woolly plant response rating): 0%
pest or weed control at 125 g/ha ([11]; Eriochloa villosa, post-emergence, 125 g ai/ha, scale 0 to 100 (0 no effect, 100 complete control), read-out: Cupgrass, Woolly plant response rating): 0%
pest or weed control at 250 g/ha ([11]; Eriochloa villosa, post-emergence, 250 g ai/ha, scale 0 to 100, read-out: Plant response rating, Cupgrass, Woolly): 5%

Nc1nc(-c2ccc(Cl)cc2)nc(C(=O)O)c1Br [Compound 88]
Plant response rating (scale of 0 to 100), Surinam Grass ([1]; 31 g ai/ha): 45
Plant response rating (scale of 0 to 100), Surinam Grass ([1]; 62 g ai/ha): 60
Surinam Grass plant response rating [1, 12]: 80
Plant response rating, Surinam Grass ([1]; 250 g ai/ha, scale 0 to 100): 85
Plant response rating (scale of 0 to 100), Bermudagrass ([2]; 31 g ai/ha): 50
Bermudagrass plant response rating ([2]; 62 g ai/ha, scale 0 to 100 (0 no effect, 100 complete control)): 70
Bermudagrass plant response rating [2, 12]: 70
Plant response rating, Bermudagrass ([2]; 250 g ai/ha, scale 0 to 100): 80
Plant response rating (scale of 0 to 100), Crabgrass ([3]; 31 g ai/ha): 75
Plant response rating (scale of 0 to 100), Crabgrass ([3]; 62 g ai/ha): 80
Crabgrass plant response rating [3, 12]: 80
Plant response rating, Crabgrass ([3]; 250 g ai/ha, scale 0 to 100): 85
Plant response rating (scale of 0 to 100), Foxtail, Giant ([4]; 31 g ai/ha): 55
Plant response rating (scale of 0 to 100), Foxtail, Giant ([4]; 62 g ai/ha): 75
Foxtail, Giant plant response rating [4, 12]: 80
Plant response rating, Foxtail, Giant ([4]; 250 g ai/ha, scale 0 to 100): 85
Plant response rating (scale of 0 to 100), Goosegrass ([5]; 31 g ai/ha): 50
Plant response rating (scale of 0 to 100), Goosegrass ([5]; 62 g ai/ha): 75
Goosegrass plant response rating [5, 12]: 75
Plant response rating, Goosegrass ([5]; 250 g ai/ha, scale 0 to 100): 80
Plant response rating (scale of 0 to 100), Johnsongrass ([6]; 31 g ai/ha): 30
Plant response rating (scale of 0 to 100), Johnsongrass ([6]; 62 g ai/ha): 45
Johnsongrass plant response rating [6, 12]: 75
Plant response rating, Johnsongrass ([6]; 250 g ai/ha, scale 0 to 100): 85
Plant response rating (scale of 0 to 100), Kochia ([7]; 31 g ai/ha): 85
Plant response rating (scale of 0 to 100), Kochia ([7]; 62 g ai/ha): 95
Kochia plant response rating [7, 12]: 95
Plant response rating, Kochia ([7]; 250 g ai/ha, scale 0 to 100): 95
Plant response rating (scale of 0 to 100), Morningglory ([8]; 31 g ai/ha): 60
Morningglory plant response rating [8, 12]: 85
Plant response rating, Morningglory ([8]; 250 g ai/ha, scale 0 to 100): 85
Plant response rating (scale of 0 to 100), Pigweed ([9]; 31 g ai/ha): 95
Plant response rating (scale of 0 to 100), Pigweed ([9]; 62 g ai/ha): 100
Pigweed plant response rating [9, 12]: 100
Plant response rating, Pigweed ([9]; 250 g ai/ha, scale 0 to 100): 100
Plant response rating (scale of 0 to 100), Soybean ([10]; 31 g ai/ha): 100
Plant response rating (scale of 0 to 100), Soybean ([10]; 62 g ai/ha): 100
Soybean plant response rating [10, 12]: 100
Plant response rating, Soybean ([10]; 250 g ai/ha, scale 0 to 100): 100
Plant response rating (scale of 0 to 100), Cupgrass, Woolly ([11]; 31 g ai/ha): 70
Plant response rating (scale of 0 to 100), Cupgrass, Woolly ([11]; 62 g ai/ha): 75
Cupgrass, Woolly plant response rating [11, 12]: 85
Plant response rating, Cupgrass, Woolly ([11]; 250 g ai/ha, scale 0 to 100): 85

Source: patent publication US8802597B2, “Herbicidal pyrimidines” (E I du Pont de Nemours and Company, priority 2003, dated 2014)
